# Laboratory results published in ChEMBL document CHEMBL5376015, “Kinase inhibitor macrocycles: a perspective on limiting conformational flexibility when targeting the kinome with small molecules” (RSC Med Chem, 2024).
# Assays:
# [1] = in vitro; conditions: human, human liver microsomes
# Description: Clearance in human liver microsomes
# [2] = physchem; conditions: octanol/water
# Description: Lipophilicity, logD of the compound
# [3] = biological target: Cyclin-dependent kinase 2 (Homo sapiens, UniProt P24941); experiment: Inhibition of human recombinant CDK2 by Kinomescan method
# [4] = biological target: Tyrosine-protein kinase JAK1 (Homo sapiens, UniProt P23458)
# Description: Inhibition of human recombinant JAK1
# [5] = biological target: Non-receptor tyrosine-protein kinase TYK2 (Homo sapiens, UniProt P29597); experiment: Inhibition of human recombinant TYK2
# [6] = biological target: T1, Tyrosine-protein kinase JAK3 (Homo sapiens, UniProt P52333); experiment: Inhibition of human recombinant JAK3
# T1 sequence (P52333 whole entry): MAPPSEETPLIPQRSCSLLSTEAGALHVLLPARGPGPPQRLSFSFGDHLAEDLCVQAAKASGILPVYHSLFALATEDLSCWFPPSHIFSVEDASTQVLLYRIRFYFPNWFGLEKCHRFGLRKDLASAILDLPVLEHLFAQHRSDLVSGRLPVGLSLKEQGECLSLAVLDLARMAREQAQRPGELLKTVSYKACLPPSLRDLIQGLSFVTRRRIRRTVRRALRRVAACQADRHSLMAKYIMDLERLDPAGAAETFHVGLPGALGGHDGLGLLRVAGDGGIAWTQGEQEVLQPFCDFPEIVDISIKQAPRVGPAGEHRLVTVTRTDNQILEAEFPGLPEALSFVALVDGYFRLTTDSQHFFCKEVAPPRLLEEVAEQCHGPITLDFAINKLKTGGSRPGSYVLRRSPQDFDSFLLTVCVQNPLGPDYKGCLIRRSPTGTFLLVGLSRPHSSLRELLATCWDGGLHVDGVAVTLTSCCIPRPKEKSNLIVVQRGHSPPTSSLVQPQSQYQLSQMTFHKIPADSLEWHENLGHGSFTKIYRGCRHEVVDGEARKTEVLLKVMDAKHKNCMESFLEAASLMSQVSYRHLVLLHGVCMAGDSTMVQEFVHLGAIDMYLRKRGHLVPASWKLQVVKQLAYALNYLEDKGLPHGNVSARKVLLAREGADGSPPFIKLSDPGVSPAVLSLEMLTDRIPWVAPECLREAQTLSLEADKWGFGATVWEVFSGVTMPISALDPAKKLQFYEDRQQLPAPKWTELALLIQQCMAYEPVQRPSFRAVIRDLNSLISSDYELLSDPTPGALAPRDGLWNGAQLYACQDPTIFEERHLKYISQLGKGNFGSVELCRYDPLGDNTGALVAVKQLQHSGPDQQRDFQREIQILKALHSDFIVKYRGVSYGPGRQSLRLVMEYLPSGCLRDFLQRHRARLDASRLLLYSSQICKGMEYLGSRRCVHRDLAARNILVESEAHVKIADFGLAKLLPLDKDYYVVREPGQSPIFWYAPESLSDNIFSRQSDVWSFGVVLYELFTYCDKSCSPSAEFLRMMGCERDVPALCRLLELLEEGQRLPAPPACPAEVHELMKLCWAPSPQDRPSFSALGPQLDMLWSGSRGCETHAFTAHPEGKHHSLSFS
# [7] = biological target: T2, Receptor-type tyrosine-protein kinase FLT3 (Homo sapiens, UniProt P36888)
# T2 sequence (P36888 whole entry): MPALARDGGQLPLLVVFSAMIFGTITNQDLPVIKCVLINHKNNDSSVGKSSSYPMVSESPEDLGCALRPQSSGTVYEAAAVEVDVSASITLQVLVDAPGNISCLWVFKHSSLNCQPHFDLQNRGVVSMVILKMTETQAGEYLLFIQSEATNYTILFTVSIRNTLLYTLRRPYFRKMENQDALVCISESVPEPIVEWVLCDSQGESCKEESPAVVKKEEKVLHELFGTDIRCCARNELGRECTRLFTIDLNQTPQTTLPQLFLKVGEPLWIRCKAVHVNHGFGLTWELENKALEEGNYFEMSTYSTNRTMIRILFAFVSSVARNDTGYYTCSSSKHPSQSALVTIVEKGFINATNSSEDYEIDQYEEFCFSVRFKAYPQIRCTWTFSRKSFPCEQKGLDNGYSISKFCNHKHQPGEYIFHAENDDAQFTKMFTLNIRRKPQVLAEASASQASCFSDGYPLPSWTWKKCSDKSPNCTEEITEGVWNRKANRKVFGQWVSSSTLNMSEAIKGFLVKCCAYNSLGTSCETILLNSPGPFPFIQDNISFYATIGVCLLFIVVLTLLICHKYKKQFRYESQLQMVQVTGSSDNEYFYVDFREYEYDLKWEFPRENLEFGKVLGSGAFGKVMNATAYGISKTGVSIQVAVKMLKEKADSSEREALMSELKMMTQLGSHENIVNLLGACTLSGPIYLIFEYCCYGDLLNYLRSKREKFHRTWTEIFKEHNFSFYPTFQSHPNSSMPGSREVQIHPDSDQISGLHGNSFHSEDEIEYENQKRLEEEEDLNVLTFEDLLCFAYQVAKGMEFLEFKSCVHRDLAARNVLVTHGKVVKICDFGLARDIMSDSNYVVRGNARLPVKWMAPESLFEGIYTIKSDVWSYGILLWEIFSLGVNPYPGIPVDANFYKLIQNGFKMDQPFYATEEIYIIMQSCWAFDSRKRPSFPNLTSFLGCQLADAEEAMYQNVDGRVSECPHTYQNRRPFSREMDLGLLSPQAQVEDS
# Description: Inhibition of recombinant FLT3 in human MV4-11 cells assessed as reduction in ERK phosphorylation by Western blotting analysis
# [8] = biological target: Tyrosine-protein kinase JAK2 (Homo sapiens, UniProt O60674)
# Description: Inhibition of human recombinant JAK2
# [9] = biological target: T3, Cytochrome P450 3A4 (Homo sapiens, UniProt P08684)
# Description: Inhibition of CYP3A4 in human liver microsomes using testosterone as substrate by LC-MS/MS analysis
# [10] = biological target: T4, Cytochrome P450 2D6 (Homo sapiens, UniProt P10635)
# Description: Inhibition of CYP2D6 in human liver microsomes using dextromethorphan as substrate by LC-MS/MS analysis
# [11] = physchem; conditions: PBS, pH 7
# Description: Aqueous solubility of the compound in PBS at pH 7
# [12] = in vitro; conditions: PAMPA, pH 7.4
# Description: Permeability of compound at pH 7.4 by PAMPA assay
# [13] = system: BaF3; experiment: Growth inhibition of mouse BaF3 cells harboring JAK2 V617F mutant assessed as reduction in cell viability incubated for 72 hrs by MTT assay; format: functional
# [14] = biological target: ALK tyrosine kinase receptor (Homo sapiens, UniProt Q9UM73, L1196M)
# Description: Binding affinity to ALK L1196M mutant (unknown origin) assessed as inhibition constant
# [15] = biological target: ALK tyrosine kinase receptor (Homo sapiens, UniProt Q9UM73)
# Description: Binding affinity to ALK (unknown origin) assessed as inhibition of constant
# [16] = Plasma protein binding in mouse; format: ADME, cell-free; conditions: read-out: PPB (converted)
# [17] = in vitro; conditions: mouse, mouse liver microsomes
# Description: Half life in mouse liver microsomes
# [18] = Kinetic solubility of compound at pH 7; format: physicochemical; conditions: buffer, read-out: Kinetic_solubility
# [19] = in vitro; conditions: human, human liver microsomes; remark: listed apart in the source
# Description: Half life in human liver microsome
# [20] = system: BaF3; experiment: cells; conditions: Mus musculus, BaF3, 72 h
# Description: Antiproliferative activity against mouse BaF3 cells harbouring wild type TRKC assessed as cell growth inhibition incubated for 3 days by CCK8 method
# [21] = system: NIH3T3; experiment: Antiproliferative activity against mouse NIH3T3 cells expressing wild type TRKC […] assessed as inhibition of cell growth measured after 72 hrs by CCK-8 assay; format: functional
# [22] = system: BaF3; experiment: cells; conditions: Mus musculus, BaF3, 72 h; remark: listed apart in the source
# Description: Antiproliferative activity against mouse BaF3 cells harbouring TRKA G595R mutant assessed as cell growth inhibition incubated for 3 days by CCK8 method
# [23] = system: BaF3; experiment: cells; conditions: Mus musculus, BaF3, 72 h; remark: listed apart in the source
# Description: Antiproliferative activity against mouse BaF3 cells harbouring ETV6-TRKC G623E mutant incubated for 3 days by CCK8 method
# [24] = system: NIH3T3; experiment: Antiproliferative activity against mouse NIH3T3 cells harbouring TRKA V573M mutant assessed as cell growth inhibition incubated for 3 days by CCK8 method; format: functional; conditions: NIH3T3, 72 h, time 3 day
# [25] = system: NIH3T3; experiment: Antiproliferative activity against mouse NIH3T3 cells expressing TRKC G623R mutant assessed as inhibition of cell growth measured after 72 hrs by CCK-8 assay; format: functional
# [26] = system: NIH3T3; experiment: Antiproliferative activity against mouse NIH3T3 cells expressing TRKA G667S mutant assessed as inhibition of cell growth measured after 72 hrs by CCK-8 assay; format: functional
# [27] = system: BaF3; experiment: cells; conditions: Mus musculus, BaF3, 72 h; remark: listed apart in the source
# [28] = system: NIH3T3; experiment: cells; conditions: Mus musculus
# Description: Antiproliferative activity against mouse NIH3T3 cells transfected with wild type TRKA assessed as cell growth inhibition
# [29] = system: NIH3T3; experiment: Antiproliferative activity against mouse NIH3T3 cells harbouring ETV6-TRKC G696A mutant incubated for 3 days by CCK8 method; format: functional; conditions: NIH3T3, 72 h, time 3 day
# [30] = biological target: T4, Cytochrome P450 2D6; remark: listed apart in the source
# Description: Inhibition of CYP2D6 (unknown origin)
# [31] = biological target: T3, Cytochrome P450 3A4; remark: listed apart in the source
# Description: Inhibition of CYP3A4 (unknown origin)
# [32] = system: NIH3T3; experiment: Antiproliferative activity against mouse NIH3T3 cells harbouring TRKC G595R mutant assessed as cell growth inhibition incubated for 3 days by CCK8 method; format: functional; conditions: NIH3T3, 72 h, time 3 day
# [33] = system: NIH3T3; experiment: Antiproliferative activity against mouse NIH3T3 cells expressing TRKA F589L mutant assessed as inhibition of cell growth measured after 72 hrs by CCK-8 assay; format: functional
# T4 sequence (P10635 whole entry): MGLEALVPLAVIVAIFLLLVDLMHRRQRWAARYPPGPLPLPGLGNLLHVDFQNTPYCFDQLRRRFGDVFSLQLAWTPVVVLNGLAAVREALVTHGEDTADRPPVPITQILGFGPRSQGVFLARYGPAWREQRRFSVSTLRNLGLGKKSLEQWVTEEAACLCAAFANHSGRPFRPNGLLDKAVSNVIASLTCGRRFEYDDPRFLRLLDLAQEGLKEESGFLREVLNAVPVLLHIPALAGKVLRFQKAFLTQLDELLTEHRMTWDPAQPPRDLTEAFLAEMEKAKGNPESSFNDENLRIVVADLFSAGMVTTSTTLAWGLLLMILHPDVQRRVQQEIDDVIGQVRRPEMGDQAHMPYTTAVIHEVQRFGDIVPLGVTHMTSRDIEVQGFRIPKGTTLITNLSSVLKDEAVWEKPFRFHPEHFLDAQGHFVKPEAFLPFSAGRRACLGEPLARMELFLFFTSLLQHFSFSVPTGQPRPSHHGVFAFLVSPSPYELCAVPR
# Tyrosine-protein kinase JAK2, sequence (O60674 whole entry): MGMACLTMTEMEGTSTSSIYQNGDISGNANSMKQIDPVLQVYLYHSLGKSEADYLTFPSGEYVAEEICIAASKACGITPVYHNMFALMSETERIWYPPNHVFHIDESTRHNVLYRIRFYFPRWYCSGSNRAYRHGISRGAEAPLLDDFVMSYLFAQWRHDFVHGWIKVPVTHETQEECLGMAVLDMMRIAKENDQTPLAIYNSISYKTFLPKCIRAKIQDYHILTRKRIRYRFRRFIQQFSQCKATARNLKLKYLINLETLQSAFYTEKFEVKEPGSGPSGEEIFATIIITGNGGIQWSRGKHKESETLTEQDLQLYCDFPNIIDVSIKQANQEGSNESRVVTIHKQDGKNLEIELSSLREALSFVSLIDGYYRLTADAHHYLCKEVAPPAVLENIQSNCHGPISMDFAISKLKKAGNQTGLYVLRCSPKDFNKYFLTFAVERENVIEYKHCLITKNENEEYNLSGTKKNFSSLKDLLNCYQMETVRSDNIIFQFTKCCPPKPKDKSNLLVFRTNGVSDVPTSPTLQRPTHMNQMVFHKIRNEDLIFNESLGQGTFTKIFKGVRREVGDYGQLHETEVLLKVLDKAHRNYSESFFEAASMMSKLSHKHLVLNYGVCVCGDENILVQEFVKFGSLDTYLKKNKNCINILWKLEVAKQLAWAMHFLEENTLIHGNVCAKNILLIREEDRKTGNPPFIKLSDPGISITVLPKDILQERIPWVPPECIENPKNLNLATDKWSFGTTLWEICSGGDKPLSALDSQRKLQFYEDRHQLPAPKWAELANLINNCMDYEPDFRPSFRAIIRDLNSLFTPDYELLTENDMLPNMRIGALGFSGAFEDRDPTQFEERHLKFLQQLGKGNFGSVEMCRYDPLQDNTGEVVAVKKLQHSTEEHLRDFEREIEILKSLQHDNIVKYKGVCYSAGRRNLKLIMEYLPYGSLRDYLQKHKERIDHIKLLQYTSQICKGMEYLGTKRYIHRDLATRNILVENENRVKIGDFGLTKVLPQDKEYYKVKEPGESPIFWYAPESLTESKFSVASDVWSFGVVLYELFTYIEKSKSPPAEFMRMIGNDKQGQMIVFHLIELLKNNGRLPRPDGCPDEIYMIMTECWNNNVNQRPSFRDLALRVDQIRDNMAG
# Tyrosine-protein kinase JAK1, sequence (P23458 whole entry): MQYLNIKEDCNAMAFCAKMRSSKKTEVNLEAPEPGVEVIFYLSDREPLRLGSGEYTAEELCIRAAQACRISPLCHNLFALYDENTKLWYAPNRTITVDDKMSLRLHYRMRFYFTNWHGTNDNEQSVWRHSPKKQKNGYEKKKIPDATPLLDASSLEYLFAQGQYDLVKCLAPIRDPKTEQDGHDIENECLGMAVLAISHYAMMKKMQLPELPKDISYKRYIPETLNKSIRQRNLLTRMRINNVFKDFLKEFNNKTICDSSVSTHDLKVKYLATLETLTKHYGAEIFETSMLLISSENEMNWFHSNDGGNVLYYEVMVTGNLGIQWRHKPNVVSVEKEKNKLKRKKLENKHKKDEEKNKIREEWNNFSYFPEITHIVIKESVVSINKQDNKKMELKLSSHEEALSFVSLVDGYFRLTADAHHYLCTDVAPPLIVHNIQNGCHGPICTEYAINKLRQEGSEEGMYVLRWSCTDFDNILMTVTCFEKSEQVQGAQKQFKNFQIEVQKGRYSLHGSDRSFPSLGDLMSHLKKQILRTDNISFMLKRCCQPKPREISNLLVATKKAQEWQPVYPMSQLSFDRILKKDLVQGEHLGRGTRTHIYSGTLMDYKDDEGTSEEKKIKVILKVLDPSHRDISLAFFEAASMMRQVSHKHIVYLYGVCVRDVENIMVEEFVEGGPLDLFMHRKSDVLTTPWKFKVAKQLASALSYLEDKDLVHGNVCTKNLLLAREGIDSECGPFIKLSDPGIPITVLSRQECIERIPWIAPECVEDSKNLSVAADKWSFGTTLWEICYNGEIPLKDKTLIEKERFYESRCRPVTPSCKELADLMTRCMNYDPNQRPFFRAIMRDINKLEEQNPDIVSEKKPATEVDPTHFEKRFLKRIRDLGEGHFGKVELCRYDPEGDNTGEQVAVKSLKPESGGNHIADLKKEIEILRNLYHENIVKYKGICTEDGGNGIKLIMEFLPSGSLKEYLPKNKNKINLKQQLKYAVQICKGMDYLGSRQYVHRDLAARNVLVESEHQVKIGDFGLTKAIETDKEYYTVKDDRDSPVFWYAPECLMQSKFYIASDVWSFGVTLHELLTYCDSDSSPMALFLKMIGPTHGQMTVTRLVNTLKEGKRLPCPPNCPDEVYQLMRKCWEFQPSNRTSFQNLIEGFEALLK
# T3 sequence (P08684 whole entry): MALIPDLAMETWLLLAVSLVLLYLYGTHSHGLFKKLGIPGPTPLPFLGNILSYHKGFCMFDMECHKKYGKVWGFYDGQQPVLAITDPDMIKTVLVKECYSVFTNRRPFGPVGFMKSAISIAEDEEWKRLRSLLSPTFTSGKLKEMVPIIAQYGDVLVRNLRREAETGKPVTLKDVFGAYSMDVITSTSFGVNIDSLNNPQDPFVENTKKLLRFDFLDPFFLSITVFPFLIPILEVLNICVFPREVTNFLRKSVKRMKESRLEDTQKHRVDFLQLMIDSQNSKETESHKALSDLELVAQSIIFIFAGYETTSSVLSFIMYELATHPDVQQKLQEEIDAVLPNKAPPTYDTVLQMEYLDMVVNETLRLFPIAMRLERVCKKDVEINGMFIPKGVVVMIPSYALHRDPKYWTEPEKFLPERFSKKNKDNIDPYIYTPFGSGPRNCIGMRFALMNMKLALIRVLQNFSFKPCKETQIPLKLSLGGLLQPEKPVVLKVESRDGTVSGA
# Non-receptor tyrosine-protein kinase TYK2, sequence (P29597 whole entry): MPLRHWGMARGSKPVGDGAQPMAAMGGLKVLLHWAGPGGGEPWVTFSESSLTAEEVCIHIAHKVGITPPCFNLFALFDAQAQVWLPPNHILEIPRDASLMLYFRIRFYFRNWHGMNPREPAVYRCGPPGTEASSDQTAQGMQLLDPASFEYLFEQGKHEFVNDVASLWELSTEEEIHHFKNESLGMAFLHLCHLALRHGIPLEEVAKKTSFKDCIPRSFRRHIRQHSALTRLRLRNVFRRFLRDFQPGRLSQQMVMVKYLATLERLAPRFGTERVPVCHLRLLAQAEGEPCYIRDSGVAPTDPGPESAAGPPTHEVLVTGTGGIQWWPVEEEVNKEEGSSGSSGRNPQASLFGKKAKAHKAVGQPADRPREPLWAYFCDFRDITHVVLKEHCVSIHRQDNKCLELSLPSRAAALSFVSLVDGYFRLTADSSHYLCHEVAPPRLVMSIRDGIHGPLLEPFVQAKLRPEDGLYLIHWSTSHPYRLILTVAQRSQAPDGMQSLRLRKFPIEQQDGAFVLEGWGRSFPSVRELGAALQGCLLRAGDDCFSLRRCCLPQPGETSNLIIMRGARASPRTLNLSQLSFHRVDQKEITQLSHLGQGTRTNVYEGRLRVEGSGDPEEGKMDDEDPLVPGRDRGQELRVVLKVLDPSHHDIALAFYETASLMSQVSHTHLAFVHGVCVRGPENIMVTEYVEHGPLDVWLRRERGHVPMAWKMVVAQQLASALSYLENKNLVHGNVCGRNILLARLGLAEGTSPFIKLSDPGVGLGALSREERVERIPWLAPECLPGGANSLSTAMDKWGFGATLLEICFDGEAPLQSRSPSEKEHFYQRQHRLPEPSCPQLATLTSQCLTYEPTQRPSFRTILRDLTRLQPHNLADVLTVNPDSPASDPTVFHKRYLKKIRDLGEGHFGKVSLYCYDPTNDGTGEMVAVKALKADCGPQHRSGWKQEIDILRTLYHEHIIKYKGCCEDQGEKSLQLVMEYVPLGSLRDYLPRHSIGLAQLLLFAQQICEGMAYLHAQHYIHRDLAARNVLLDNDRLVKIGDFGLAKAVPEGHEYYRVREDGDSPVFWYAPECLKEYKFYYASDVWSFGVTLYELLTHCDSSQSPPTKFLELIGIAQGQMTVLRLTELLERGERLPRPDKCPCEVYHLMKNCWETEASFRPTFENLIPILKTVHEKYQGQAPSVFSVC
compound,measurement,setting,value
COc1ccc(F)cc1[C@@H](C)Oc1cc(-c2cnnn2C)cnc1N,microsomal CLint,[1],25 µL/min/mg
CNC(=O)c1ccc(F)cc1[C@@H](C)Oc1cc(-c2cn(C)nc2C)cnc1N,microsomal CLint,[1],28 µL/min/mg
same,logD,[2],3.7
CNC(=O)c1ccc(F)cc1[C@@H](C)Oc1nc(-c2cccnc2OC)cnc1N,microsomal CLint,[1],76 µL/min/mg
Cc1nn(C)c2c1-c1cnc(N)c(c1)O[C@H](C)c1cc(F)ccc1C(=O)N(C)C2,microsomal CLint,[1],8.6 µL/min/mg
COc1ccc2cc1COC/C=C/COCc1cccc(c1)-c1ccnc(n1)N2,IC50,[3],860 nM
same,IC50,[4],1.9 µM
same,IC50,[5],210 nM
same,IC50,[6],1200 nM
CN(C)CCN(C)c1ccc2cc1COC/C=C/COCc1cccc(c1)-c1ccnc(n1)N2,IC50,[3],88 nM
same,IC50,[4],3.6 µM
same,IC50,[7],31 nM
same,IC50,[5],71 nM
same,IC50,[8],77 nM
COc1ccc2cc1COC/C=C/COCc1cc(ccc1OCCN1CCCC1)Nc1nccc-2n1,IC50,[9],> 10 µM
same,IC50,[3],> 10000 nM
same,IC50,[4],> 10 µM
same,IC50,[10],10 µM
same,IC50,[7],92 nM
same,IC50,[5],180 nM
same,solubility,[11],60.8 µg/mL
same,IC50,[8],19 nM
same,Papp,[12],10.1 ×10⁻⁶ cm/s
same,IC50,[6],890 nM
same,GI50,[13],100 nM
OCCN1CCN(c2ccc3cc2COC/C=C/COCc2cccc(c2)-c2ccnc(n2)N3)CC1,IC50,[3],3700 nM
same,IC50,[4],3.1 µM
same,IC50,[7],70 nM
same,IC50,[5],160 nM
same,IC50,[8],84 nM
same,IC50,[6],2500 nM
C[C@@H]1Oc2cc(cnc2N)-c2c(C#N)nn(C)c2CCCOc2ccc(F)cc21,Ki,[14],0.62 nM
same,logD,[2],3.8
same,Ki,[15],< 0.1 nM
Cc1cnc2nc1-c1cccc(c1)COC/C=C/COCc1cc(ccc1OCCN1CCCC1)N2,IC50,[4],1 µM
same,IC50,[7],19 nM
same,IC50,[5],57 nM
same,IC50,[8],7 nM
same,IC50,[6],89 nM
same,GI50,[13],180 nM
C1=C2COC/C=C/COCc3cc(ccc3OCCN3CCCC3)Nc3nccc(n3)C(=C1)O2 [CT-1578],fraction unbound,[16],0.127
same,half-life,[17],18 min
same,solubility kinetic,[18],> 250 µg/mL
same,half-life,[19],> 60 min
O=C(Nc1cnn2ccc(N3CCC[C@@H]3c3cc(F)ccc3F)nc12)N1CC[C@H](O)C1 [LAROTRECTINIB],GI50,[20],10.2 nM
same,GI50,[21],18.8 nM
same,GI50,[22],1020 nM
same,GI50,[23],742 nM
same,GI50,[24],1020 nM
same,GI50,[25],> 10000 nM
same,GI50,[26],70 nM
same,GI50,[27],3.29 µM
same,GI50,[28],5 nM
same,GI50,[29],172 nM
C[C@H]1Oc2cc(cnc2N)-c2c(nn(C)c2C#N)CN(C)C(=O)c2ccc(F)cc21 [LORLATINIB],microsomal CLint,[1],< 8 µL/min/mg
C1=N/C2=N/c3ccc(OCCN4CCCC4)c(c3)COC/C=C/COCc3cccc(c3)C(=C1)N2 [PACRITINIB],IC50,[9],> 5 µM
same,IC50,[3],> 3900 nM
same,fraction unbound,[16],0.006
same,IC50,[10],5 µM
same,half-life,[17],22 min
same,IC50,[30],> 5 µM
same,solubility,[11],> 150 µg/mL
same,IC50,[31],> 5 µM
same,solubility kinetic,[18],> 150 µg/mL
same,GI50,[13],160 nM
same,half-life,[19],> 60 min
C[C@@H]1CCc2ncc(F)cc2[C@H]2CCCN2c2ccn3ncc(c3n2)C(=O)N1 [SELITRECTINIB],GI50,[32],7 nM
same,GI50,[24],29 nM
same,GI50,[25],45.5 nM
same,GI50,[26],25 nM
same,GI50,[33],9 nM
same,GI50,[29],17.5 nM
CN1C/C=C/CCOc2cccc(c2)-c2ccnc(n2)Nc2cccc(c2)C1 [ZOTIRACICLIB],fraction unbound,[16],0.006
same,half-life,[17],12 min
same,IC50,[31],> 25 µM
same,solubility kinetic,[18],71.8 µg/mL
